According to patent publication US9868737B2, “Pyridino[1,2-A]pyrimidone analogue used as MTOR/P13K inhibitor” (CISEN PHARMACEUTICAL CO., LTD., priority 2014, dated 2018):
Like-named read-outs stand apart in the source and are kept apart here.

Test system: MCF-7 cells
Assay: In vitro test of cell activity (MCF-7 cells, insulin stimulation, ELISA-One fluorescence)
Type: cell-based
Conditions: for inhibition at 0.5 µM: conc. 0.5 μM; for inhibition at 0.25 µM: conc. 0.25 μM; for inhibition at 1 µM: conc. 1 μM
Method in brief: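 Fluorescence ELISA-One read-out on cell lysates, antibody-captured 1 h at room temperature. Before lysis, MCF-7 cells (2.5×10^4/well) were pretreated 2 h with compound in serum-free medium, single dose for screening or a dilution series for IC50, then stimulated 30 min with insulin ([…] final).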

[1] = Homo sapiens, MCF7, MCF-7 cells, read-out: % inhibition AKT
[2] = Homo sapiens, MCF7, MCF-7 cells, read-out: % inhibition p70s6k
[3] = Homo sapiens, MCF7, MCF-7 cells, read-out: IC50 p-AKT
[4] = Homo sapiens, MCF7, MCF-7 cells, read-out: IC50 p-p70S6K

SMILES | IC50 [3] | inhibition at 0.5 µM [1] | inhibition at 0.5 µM [2] | also measured
COc1ncc(-c2cn3c(=O)ccnc3cn2)cc1NS(=O)(=O)c1cccc(F)c1 [compound 42] |  | 9.1% | 5.1% | 
COc1ncc(-c2ccc3ncc(NC(C)=O)c(=O)n3c2)cc1NS(=O)(=O)c1ccc(F)cc1F [compound 97] | > 250 nM |  |  | 
COCOCCOc1cnc2ccc(-c3cnc(OC)c(NS(=O)(=O)c4sc(C)nc4C)c3)cn2c1=O [compound 188] | ≤ 50 nM |  |  | 
COc1ncc(-c2ccc3nccc(=O)n3c2C)cc1NS(=O)(=O)c1c(F)cccc1F [compound 58] |  | 60.3% | 32.8% | 
COc1ncc(-c2ccc3ncc(OCC4OCCO4)c(=O)n3c2)cc1NS(=O)(=O)c1sc(C)nc1C [compound 186] | ≤ 50 nM |  |  | 
COCc1cnc2ccc(-c3cnc(OC)c(NS(=O)(=O)c4sc(C)nc4C)c3)cn2c1=O [compound 239, N-(2-methoxy-5-(3-(methoxymethyl)-4-oxo-4H-pyrido[1,2-a]pyrimidin-7-yl)pyridin-3-yl)-2,4-dimethylthiazolyl-5-sulfamide] | ≤ 50 nM |  |  | 
COc1nnc(-c2ccc3ncc(Cl)c(=O)n3c2)cc1NS(=O)(=O)c1ccc(F)cc1F [compound 133] | > 250 nM |  |  | 
COc1ncc(-c2ccc3ncc(Cl)c(=O)n3c2)cc1NS(=O)(=O)c1ccc(F)cc1 [compound 146] |  |  |  | inhibition at 0.25 µM [1]: 77.6%; inhibition at 0.25 µM [2]: 83.7%
COc1ncc(-c2cn3c(=O)ccnc3cn2)cc1NS(=O)(=O)c1cc(F)ccc1F [compound 41] |  | -10.1% | 0.1% | 
COc1ncc(-c2cn3c(=O)ccnc3cc2F)cc1NS(=O)(=O)c1ccc(F)cc1F [compound 112] |  | 40.8% | 3.6% | 
O=c1ccnc2ccc(-c3cnc(Cl)c(NS(=O)(=O)c4ccc(F)cc4F)c3)cn12 [compound 16] | ≤ 50 nM |  |  | inhibition at 1 µM [1]: 91.6%; inhibition at 1 µM [2]: 75.1%; IC50 [4]: > 250 nM
COc1ncc(-c2cn3c(=O)ccnc3cn2)cc1NS(=O)(=O)c1ccc(F)cc1 [compound 43] |  | 17.8% | 16.2% | 
COc1ncc(-c2ccc3nc(C)cc(=O)n3c2)cc1NS(=O)(=O)c1ccc(C(F)(F)F)cc1 [compound 223] |  |  |  | inhibition at 0.25 µM [1]: 17.9%; inhibition at 0.25 µM [2]: -1.5%
COc1ncc(-c2ccc3nc(C)cc(=O)n3c2)cc1NS(=O)(=O)c1ccc(F)cc1C [compound 229] |  | 31.7% | 1.4% | 
COc1ncc(-c2ccc3ncc(Cl)c(=O)n3c2)cc1NS(=O)(=O)c1[nH]c(C)nc1C [compound 165] |  |  |  | inhibition at 0.25 µM [1]: 49.5%; inhibition at 0.25 µM [2]: 63.7%
COc1ncc(-c2cn3c(=O)ccnc3cc2C)cc1NS(=O)(=O)c1c(F)cccc1F [compound 125] |  | 23.5% | 5% | 
COc1ncc(-c2ccc3ncc(Cl)c(=O)n3c2)cc1NS(=O)(=O)c1cccc(F)c1 [compound 138] |  | 68.9% | 73.8% | 
COc1ncc(-c2ccc3ncc(OC4CCC(OC)CC4)c(=O)n3c2)cc1NS(=O)(=O)c1sc(C)nc1C (stereo not shown) [compound 208] |  |  |  | IC50 (MCF-7 cells, read-out: IC50 p-AKT): ≤ 50 nM
CCOc1ncc(-c2ccc3nccc(=O)n3c2)cc1NS(=O)(=O)c1ccccc1F [compound 29] |  |  |  | inhibition at 1 µM [1]: 59.6%; inhibition at 1 µM [2]: 26.5%

SMILES | IC50 [3] | inhibition at 0.5 µM [1] | inhibition at 0.5 µM [2] | also measured
COc1ncc(-c2cn3c(=O)ccnc3cc2C)cc1NS(=O)(=O)c1ccc(F)cc1C [compound 126] |  | -12.7% | 2.4% | 
COc1ncc(-c2cn3c(=O)ccnc3cn2)cc1NS(=O)(=O)c1ccccc1Cl [compound 51] |  | 64.1% | 13.6% | 
COCCOc1cnc2ccc(-c3cnc(OC)c(NS(=O)(=O)c4cc(Cl)c(F)cc4F)c3)cn2c1=O [compound 273] | 100 to 250 nM |  |  | 
COc1ncc(-c2ccc3ncc(OCCOC(C)C)c(=O)n3c2)cc1NS(=O)(=O)c1sc(C)nc1C [compound 194] | ≤ 50 nM |  |  | 
COc1ncc(-c2ccc3nc(C)cc(=O)n3c2)cc1NS(=O)(=O)c1ccc(F)cc1F [compound 221, 2,4-difluoro-N-(2-methoxy-5-(2-methyl-4-oxo-4H-pyrido[1,2-a]pyrimidin-7-yl)pyridin-3-yl)benzsulfamide] |  |  |  | inhibition at 0.25 µM [1]: -42%; inhibition at 0.25 µM [2]: 6.8%
COc1ncc(-c2cn3c(=O)ccnc3cc2F)cc1NS(=O)(=O)c1c(F)cccc1F [compound 114] |  | 53% | -1.2% | 
O=c1ccnc2ccc(-c3cnc(Cl)c(NS(=O)(=O)c4ccccc4F)c3)cn12 [compound 19] | ≤ 50 nM |  |  | inhibition at 1 µM [1]: 91.2%; inhibition at 1 µM [2]: 74.1%; IC50 [4]: > 250 nM
COc1ncc(-c2ccc3nccc(=O)n3c2)nc1NS(=O)(=O)c1ccc(F)cc1F [compound 33] |  | -40.9% | 0.8% | 
COc1ncc(-c2ccc3nccc(=O)n3c2)cc1NS(=O)(=O)c1ccc(Cl)cc1F [compound 27] |  |  |  | inhibition at 1 µM [1]: 94.8%; inhibition at 1 µM [2]: 93.5%
COc1ncc(-c2cn3c(=O)ccnc3cc2F)cc1NS(=O)(=O)c1ccccc1F [compound 113] |  | -7.6% | 4.6% | 
COc1ncc(-c2ccc3nn(C)c(=O)n3c2)cc1NS(=O)(=O)c1ccc(F)cc1F [compound 234] | > 250 nM |  |  | 
COCCNc1cnc2ccc(-c3cnc(OC)c(NS(=O)(=O)c4sc(C)nc4C)c3)cn2c1=O [compound 99] | ≤ 50 nM |  |  | 
COCCOc1cnc2ccc(-c3cnc(OC)c(NS(=O)(=O)c4ccc(F)cc4C(F)(F)F)c3)cn2c1=O [compound 278] | ≤ 50 nM |  |  | 
COc1ncc(-c2cn3c(=O)ccnc3cc2C)cc1NS(=O)(=O)c1cccc(F)c1 [compound 124] |  | -48% | 2.8% | 
COc1ncc(-c2ccc3ncc(O)c(=O)n3c2)cc1NS(=O)(=O)c1ccc(F)cc1F [compound 101, 2,4-difluoro-N-(5-(3-hydroxy-4-oxo-4H-pyrido[1,2-a]pyrimidin-7-yl)-2-methoxypyridin-3-yl) benzsulfamide] |  |  |  | inhibition at 0.25 µM [1]: 25%; inhibition at 0.25 µM [2]: 8.6%
COCCOc1cnc2ccc(-c3cnc(OC)c(NS(=O)(=O)C4CCCCC4)c3)cn2c1=O [compound 212] | > 250 nM |  |  | 
COc1ncc(-c2cn3c(=O)ccnc3cn2)cc1NS(=O)(=O)c1ccccc1F [compound 44] |  | 6.3% | 4.7% | 
CCc1cc(F)ccc1S(=O)(=O)Nc1cc(-c2ccc3ncc(OCCOC)c(=O)n3c2)cnc1OC [compound 280] | ≤ 50 nM |  |  | 

Continued, in another order:

IC50 [3] | SMILES | inhibition at 0.5 µM [1] | inhibition at 0.5 µM [2] | also measured
≤ 50 nM | COc1ncc(-c2ccc3ncc(N)c(=O)n3c2)cc1NS(=O)(=O)c1ccc(F)cc1F [compound 87, N-(5-(3-amino-4-oxo-4H-pyrido[1,2-a]pyrimidin-7-yl)-2-methoxpyridin-3-yl)-2,4-difluorobenzsulfamide] | 92.1% | 88.1% | IC50 [4]: 100 to 250 nM
100 to 250 nM | CNc1cnc2ccc(-c3cnc(OC)c(NS(=O)(=O)c4ccc(F)cc4F)c3)cn2c1=O [compound 95, 2,4-difluoro-N-(2-methoxy-5-(3-(methylamino)-4-oxo-4H-pyrido[1,2-a]pyrimidin-7-yl)pyridin-3-yl)benzulfamide] |  |  | 
≤ 50 nM | COc1ncc(-c2ccc3ncc(N)c(=O)n3c2)cc1NS(=O)(=O)c1sc(C)nc1C [compound 93] |  |  | 
50 to 100 nM | COCCOc1cnc2ccc(-c3cnc(OC)c(NS(=O)(=O)c4ccccc4F)c3)cn2c1=O [compound 254] |  |  | 
50 to 100 nM | COCCOc1cnc2ccc(-c3cnc(OC)c(NS(=O)(=O)c4ccc(F)cc4Cl)c3)cn2c1=O [compound 213] |  |  | 
≤ 50 nM | COc1ncc(-c2ccc3ncc(OCC4COC4)c(=O)n3c2)cc1NS(=O)(=O)c1ccc(F)cc1Cl [compound 214] |  |  | 
≤ 50 nM | COCCOc1cnc2ccc(-c3cnc(OC)c(NS(=O)(=O)c4ccc(N)nc4C)c3)cn2c1=O [compound 190] |  |  | 
≤ 50 nM | COc1ncc(-c2ccc3ncc(OC)c(=O)n3c2)cc1NS(=O)(=O)c1sc(C)nc1C [compound 111] |  |  | 
≤ 50 nM | COc1ncc(-c2ccc3ncc(Cl)c(=O)n3c2)cc1NS(=O)(=O)c1ccccc1F [compound 137] | 93.3% | 87.1% | IC50 [4]: 100 to 250 nM
≤ 50 nM | COc1ncc(-c2ccc3ncc(OC)c(=O)n3c2)cc1NS(=O)(=O)c1sc(N)nc1C [compound 109] |  |  | 
100 to 250 nM | COc1ncc(-c2ccc3nccc(=O)n3c2)cc1NS(=O)(=O)c1ccc(C)nc1 [compound 32] | 75.1% | 84.2% | IC50 [4]: 100 to 250 nM
≤ 50 nM | COc1ncc(-c2ccc3nccc(=O)n3c2)cc1NS(=O)(=O)c1sccc1Cl [compound 34] | 97% | 95.6% | IC50 [4]: 50 to 100 nM
≤ 50 nM | COc1ncc(-c2ccc3ncc(OC)c(=O)n3c2)cc1NS(=O)(=O)c1ccc(F)cc1C [compound 106] | 96.2% | 91.8% | IC50 [4]: 50 to 100 nM
> 250 nM | COc1ncc(-c2ccc3ncc(N(C)C)c(=O)n3c2)cc1NS(=O)(=O)c1ccc(F)cc1F [compound 96] |  |  | 
50 to 100 nM | COCOc1cnc2ccc(-c3cnc(OC)c(NS(=O)(=O)c4sc(N)nc4C)c3)cn2c1=O [compound 184] |  |  | 
≤ 50 nM | COc1ncc(-c2ccc3ncc(Cl)c(=O)n3c2)cc1NS(=O)(=O)c1cccnc1C [compound 164] |  |  | inhibition at 0.25 µM [1]: 79.4%; inhibition at 0.25 µM [2]: 89.6%; IC50 [4]: 50 to 100 nM
≤ 50 nM | COc1ncc(-c2ccc3ncc(OC)c(=O)n3c2)cc1NS(=O)(=O)c1ccccc1Cl [compound 105] | 95.4% | 90.3% | IC50 [4]: ≤ 50 nM
